Laboratory results as given in patent US7078385B2, “Methods of inhibiting angiogenesis with fragments and homologs of troponin subunit I” (Boston Life Sciences, Inc., priority 1996, dated 2006).
No end group written: not given here.

Columns and labels:
[1] = test system: bFGF-stimulated capillary EC; assay: Inhibition of bFGF-stimulated capillary EC proliferation by fragments of troponin I (Example 13, Table 2); assay type: cell-based, bovine; details: for IC50: read-out: Approx. IC50
Method: On day one, 5,000 bovine capillary endothelial cells in DMEM/10% CS/1% GPS are plated onto each well of a 96-well pregelatinized tissue culture plate. On day two, the cell media is changed to DMEM, 2% CS, 1% GPS, 0.5% BSA (complete medium), supplemented with 10 μl of 1 mg/ml “cold” thymidine per 50 ml of medium. On day three, test samples in complete medium are added in duplicate. Additionally, […] (bFGF) is added to each well except for the appropriate controls, to a final concentration of 0.2 ng/well. On day four, 5 μl of 1:13 diluted ^3H-Thymidine stock is added to each well and the plate is incubated for 5–6 hours. Following incubation, the medium is aspirated, and the remainder is rinsed once with PBS, then twice for 5 minutes each with methanol followed by two rinses each for 10 minutes with 5% TCA. The cells are then rinsed with water three times, dried to the plate, and 100 μl of 0.3 N NaOH is added to each well. The contents of the well are then transferred to the scintillation counter vials and 3 mls of Ecolume added to each vial. Samples are then counted on the scintillation counter.
Recombinant peptides corresponding to fragments of rabbit (rb) TnI (SEQ ID NO:10) (FIG. 12) were tested for ability to inhibit bFGF-stimulated capillary EC as described above in Section 6, Examples 2 and 8. The rbTnI fragments (SEQ ID NOS:11–15) were prepared according to Jha et al., 1996, Biochemistry 35(34):11026–11035.

[2] = test system: embryonic neovascularization of the chick chorioallantoic membrane; details: cited from earlier work; for Lowest reported dose effective as combination in the CAM assay: combined with hydrocortisone (60 μg)
[3] = test system: bovine capillary endothelial cells (BCE), bFGF-stimulated; assay: bFGF-stimulated capillary endothelial cell proliferation, colorimetric acid phosphatase assay (Example 3); assay type: cell-based
Method: A quick and sensitive screen for inhibition of EC proliferation in response to treatment with a troponin subunit, homolog, or derivative of the invention involves incubating the cells in the presence of varying concentrations of the inhibitor and determining the number of endothelial cells in culture based on the colorimetric determination of cellular acid phosphatase activity, described by Connolly, et al., 1986, J. Anal. Biochem. 152:136–140.
The effect of troponin on the proliferation of capillary endothelial cells (EC) was measured in an assay which measures the ability of this protein to interfere with stimulation of endothelial cell proliferation by a known angiogenesis factor (bFGF).
Capillary endothelial cells and Balb/c 3T3 cells were separately plated (2×10^3/0.2 ml) onto gelatin-coated 96-well tissue culture dishes on day 1. On day 2, cells were refed with Dulbecco's modified Eagle's medium (Gibco) with 5% calf serum (Hyclone) (DMEM/5) and bFGF (10 ng/ml) (FGF Co.) and increasing concentrations of one or more troponin subunits. […] Wells containing phosphate buffered saline (PBS) (Gibco) alone and PBS+bFGF were included as controls. On day 5, media was removed and cells were washed with PBS and lysed in 100 μl of buffer containing 0.1 M sodium acetate (pH 5.5), 0.1% Triton X-100™ and 100 mM p-nitrophenyl phosphate (Sigma 104 phosphatase substrate). After incubation for 2 hours at 37° C., the reaction was stopped with the addition of 10 μl of 1 N NAOH. Color development was determined at 405 nm using a rapid microplate reader (Bio-Tek).
Percent inhibition was determined by comparing the cell number of wells exposed to stimulus with those exposed to stimulus and troponin subunits.

122–181: recombinant rabbit TnI fragment, C′ region, aa 122–181 (LKALLGSKHKVCMDLRANLKQVKKEDTEKERDLRDVGDWRKNIEEKSGMEGRKKMFESES; listed as Oryctolagus cuniculus)
Approx. IC50 μg/well [1]: >0.3 μg/well | % I (Percent Inhibition) of EC proliferation ([1]; 0.01 μg/well): −1% | % I (Percent Inhibition) of EC proliferation ([1]; 0.025 μg/well): −6% | % I (Percent Inhibition) of EC proliferation ([1]; 0.1 μg/well): 20% | % I (Percent Inhibition) of EC proliferation ([1]; 0.3 μg/well): 23% | IC50 [1]: > 200 nM

B-cyclodextrin tetradecasulfate
Lowest reported dose effective as combination in the CAM assay [2]: 14 µg

CMDLRANL [134–141]
Approx. IC50 μg/well [1]: 150 μg/well

DAMLKALL [120–127]
Approx. IC50 μg/well [1]: >>50 μg/well

DLRANLKQ [136–143]
Approx. IC50 μg/well [1]: >>50 μg/well

DLRGKFKRPPLRRVRMSADA [102–121]
Approx. IC50 μg/well [1]: >>20 μg/well

EDMNQKLFDLRGKFKRPPLR [94–113]
Approx. IC50 μg/well [1]: >>20 μg/well

GSKHKVCM [128–135]
Approx. IC50 μg/well [1]: 150 μg/well

KALLGSKH [124–131]
Approx. IC50 μg/well [1]: >>50 μg/well

KFKRPPLRRVRMSADAMLKA [102–125]
Approx. IC50 μg/well [1]: >>20 μg/well

KHKVCMDL [130–137]
Approx. IC50 μg/well [1]: 50 μg/well

KLFDLRGKFKRPPLRRV [98–114]
Approx. IC50 μg/well [1]: >>40 μg/well

KVCMDLRA [132–139]
Approx. IC50 μg/well [1]: 75 μg/well

LLGSKHKV [126–133]
Approx. IC50 μg/well [1]: >>50 μg/well

MLKALLGS [122–129]
Approx. IC50 μg/well [1]: >>50 μg/well

PPLRRVRMSADAMLKALLGS [110–129]
Approx. IC50 μg/well [1]: >>20 μg/well

QKLFDLRGKFKRPPLRRVRM [98–117]
Approx. IC50 μg/well [1]: >>20 μg/well

RMSADAML [116–123]
Approx. IC50 μg/well [1]: >>50 μg/well

RVRMSADAMLKALLGSKHKV [114–133]
Approx. IC50 μg/well [1]: >>20 μg/well

SADAMLKA [118–125]
Approx. IC50 μg/well [1]: >>50 μg/well

SADAMLKALLGSKHKVCMDL [118–137]
Approx. IC50 μg/well [1]: 40 μg/well

Troponin C: troponin subunit C, calcium binding polypeptide of the troponin complex; human fast twitch sequence SEQ ID NO:1
IC50 [3]: 278 nM | Percent inhibition of BCE proliferation ([3]; 280 nM): 54% | Percent inhibition of BCE proliferation ([3]; 1.4 μM): 86% | Percent inhibition of BCE proliferation ([3]; 2.8 μM): 83% | Percent inhibition of BCE proliferation ([3]; 5.6 μM (20 μg/well)): 100%

Troponin T: troponin subunit T, tropomyosin binding polypeptide of the troponin complex; SEQ ID NO:3
IC50 [3]: 2140 nM | Percent inhibition of BCE proliferation ([3]; 1.6 μM): 23% | Percent inhibition of BCE proliferation ([3]; 3.3 μM): 62% | Inhibition of bFGF-stimulated EC proliferation (in words) ([3]; 1 and 5 μg/well): not

heparin
Lowest reported dose effective as combination in the CAM assay [2]: 50 µg

protamine
Reported dose of angiogenesis inhibitor tested alone in the CAM assay [2]: 50 µg

B1: platelet factor IV: previously described angiogenesis inhibitor (Taylor et al. 1982) (protein, UniProt P02776 32-101, looked up)
Platelet factor 4: EAEEDGDLQCLCVKTTSQVRPRHITSLEVIKAGPHCPTAQLIATLKNGRKICLDLQAPLYKKIIKKLLES
Reported dose of angiogenesis inhibitor tested alone in the CAM assay [2]: 10 µg

B2: Troponin I: troponin subunit I, inhibitory polypeptide of the troponin complex; human fast twitch sequence SEQ ID NO:2 (protein, listed as Homo sapiens)
chain: MGDEEKRNRAITARRQHLKSVMLQIAATELEKEESRREAEKQNYLAEHCPPLHIPGSMSEVQELCKQLHAKIDAAEEEKYDMEVRVQKTSKELEDMNQKLFDLRGKFKRPPLRRVRMSADAMLKALLGSKHKVCMDLRANLKQVKKEDTEKERDLRDVGDWRKNIEEKSGMEGRKKMFESES
IC50 [3]: 1140 nM | Percent inhibition of BCE proliferation ([3]; 240 nM): 33% | Percent inhibition of BCE proliferation ([3]; 1.2 μM (5 μg/well), 1.2 µM): 46% | Percent inhibition of BCE proliferation ([3]; 1.2 μM (5 μg/well), listed as full-length TnI, 1.2 µM): approximately 46% | Inhibition of bFGF-stimulated BCE proliferation (in words) ([3]; 10 μg/well): inhibition was not observed

B3: 96–181: recombinant rabbit TnI fragment, carboxy terminus (C′) and I′ region, aa 96–181 (protein, listed as Oryctolagus cuniculus)
chain: NQKLFDLRGKFKRPPLRRVRMSADAMLKALLGSKHKVCMDLRANLKQVKKEDTEKERDLRDVGDWRKNIEEKSGMEGRKKMFESES
% I (Percent Inhibition) of EC proliferation ([1]; 0.01 μg/well): 25% | % I (Percent Inhibition) of EC proliferation ([1]; 0.025 μg/well): 28% | % I (Percent Inhibition) of EC proliferation ([1]; 0.1 μg/well): 54% | % I (Percent Inhibition) of EC proliferation ([1]; 0.3 μg/well): 48%

B4: 1–120: recombinant rabbit TnI fragment, N′ and inhibitory (I′) region, aa 1–120 (protein, listed as Oryctolagus cuniculus)
chain: GDEEKRNRAITARRQHLKSVMLQIAATELEKEEGRREAEKQNYLAEHCPPLSLPGSMAEVQELCKQLHAKIDAAEEEKYDMEIKVQKSSKELEDMNQKLFDLRGKFKRPPLRRVRMSADA
Approx. IC50 μg/well [1]: >>0.3 μg/well | % I (Percent Inhibition) of EC proliferation ([1]; 0.01 μg/well): 6% | % I (Percent Inhibition) of EC proliferation ([1]; 0.025 μg/well): 0% | % I (Percent Inhibition) of EC proliferation ([1]; 0.1 μg/well): 12% | % I (Percent Inhibition) of EC proliferation ([1]; 0.3 μg/well): 17% | IC50 [1]: > 100 nM

B5: 1–94: recombinant rabbit TnI fragment, amino-terminal (N′) region, aa 1–94 (protein, listed as Oryctolagus cuniculus)
chain: GDEEKRNRAITARRQHLKSVMLQIAATELEKEEGRREAEKQNYLAEHCPPLSLPGSMAEVQELCKQLHAKIDAAEEEKYDMEIKVQKSSKELED
Approx. IC50 μg/well [1]: >0.3 μg/well | % I (Percent Inhibition) of EC proliferation ([1]; 0.01 μg/well): −12% | % I (Percent Inhibition) of EC proliferation ([1]; 0.025 μg/well): 6% | % I (Percent Inhibition) of EC proliferation ([1]; 0.1 μg/well): 31% | % I (Percent Inhibition) of EC proliferation ([1]; 0.3 μg/well): 28% | IC50 [1]: > 100 nM
